Measured values reported in US9901611B2 (Molecular Defenses Corporation, priority 2015, dated 2018).
Like-named read-outs stand apart in the source and are kept apart here.

Tests used:
[1] = system: HIV; conditions: U1 cells, in the absence of cytotoxic or cytostatic effects; cited from earlier work
[2] = system: HIV-1 LTR; conditions: Jurkat cells, synergistic induction by TNFα and Tat; cited from earlier work
[3] = rats, LPS; cited from earlier work
[4] = human, in vivo, iv; cited from earlier work
[5] = 1,200 mg/day i.v., compared to baseline; cited from earlier work
[6] = system: mouse cytotoxic T-lymphocytes; conditions: i.p. injection on the third day post immunization; cited from earlier work
[7] = Phase I/II clinical trial of oral GSH in HIV positive patients, PBMC intracellular GSH; assay type: in vivo, human
From the text: Early clinical trials determined the pharmacokinetics of absorption and intracellular distribution in Peripheral Blood Mononuclear Cells in asymptomatic HIV (+) patients, using three doses of 1 gm, 2 gms and 3 gms/day over a 4 week period, with two weeks of baselines, plus two weeks of post drug exposure.

[8] = far advanced AIDS
From the text: A clinical study on far advanced AIDS patients who had exhausted the HAART combinations and averaged 300,000 copies (HIV RNA PCR) and 50 CD4+ cells/per cubic mm.

[9] = system: HIV-1; conditions: in vitro, cited from earlier work
[10] = in vivo, po; for share absorbed and intracellular: 1.5 hours
From the text: It would be possible to follow the two groups and to compare the rates of progression to determine statistically significant differences.

[11] = infusion 10 mg/min for 120 min, cited from earlier work
[12] = mouse, GSH pretreatment; cited from earlier work
[13] = system: high-affinity component of mitochondrial GSH transport; conditions: stimulated by ATP; cited from earlier work
[14] = 5 g oral per day, two female patients who survived 1 year; cited from earlier work
[15] = system: microglial cells; conditions: microglia, NO and superoxide generated simultaneously; cited from earlier work
[16] = rat, i.v. bolus, cited from earlier work
[17] = cited from earlier work
[18] = asymptomatic HIV (+) patients, 1, 2 and 3 gms/day
[19] = high end of dose range 50-300 mmol/kg
[20] = low end of dose range 50-300 mmol/kg

For GSH ester [GSE], the “induction of HIV expression mediated by PMA, TNF-α or IL-6” value (shortened to “induction of HIV expression mediated”) [1] is listed as “suppressed in a dose-dependent fashion”.
For `CC(=O)N[C@@H](CS)C(=O)O` [NAC, N-acetyl-L-cysteine], the “HIV-1 LTR-mediated gene expression” value [2] is listed as “significantly suppressed”, the “induction of HIV expression mediated” value [1] is listed as “suppressed in a dose-dependent fashion” and the “decrease of lung lavage neutrophil count” value [3] is listed as “six fold”.
In the case of `N[C@@H](CCC(=O)N[C@@H](CS)C(=O)NCC(=O)O)C(=O)O` [GSH, gamma-glutamyl-cysteinyl-glycine], the half-life [4] is listed as 14.1 ± 9.2 min, the “hematologic parameters (hematocrit, hemoglobin, blood count)” value [5] is listed as “significantly increase” and the “augmentation of cytotoxic activity” value [6] is listed as 5 fold. For the same compound, the “relation of dose to PBMC GSH” value ([7]; 1 gm, 2 gms and 3 gms/day) was “dose response relationship”, the “completion of absorption and distribution within the PBMC” value [7, 18] was 60 min and the “start of absorption and distribution within the PBMC after ingestion” value [7, 18] was 30 min. The toxicities ([7]; asymptomatic HIV (+) patients, 4 week period) was “no evidence of toxicities”, the “survival after starting on GSH” value ([8]; 75 mg/kg in two divided doses, four patients who followed the regimen) was 3 years and the “CD4+ cell counts” value ([8]; four patients) was “did not restore their CD4+ cell counts to any extent”. The “duration of suppression of HIV production” value ([9]; intracellular GSH in infected monocytes raised to the high end of the normal range) was “about 35 days”, the “HIV-1 p24 antigen levels and reverse transcriptase activity” value ([9]; single pulse exposure) was “sustained, concentration-dependent decrease” and the “share absorbed and intracellular” value ([10]; human) was 70-80%. The toxicities [10] was “no significant toxicities”, the “share absorbed and intracellular” value [10] was 80% and the “insulin clearance and action” value [11] was “No effect was seen”. The glucose-induced insulin secretion ([11]; patients with IGT) was “significantly potentiated”, the morphine-induced lethality [12] was “protects against morphine-induced lethality” and the Km [13] was ~60 µM. For the same compound, the V max [13] was “approximately 0.5 nM/min per mg of protein”, the tumor growth [14] was “regression or stagnation of their tumor growth” and the peroxynitrite formation [15] was “significantly decreased”. The “apparent volume of distribution” value [16, 19] was 1.33 L/kg, the “half-life of the elimination phase” value [16, 19] was 11.4 min and the “rate constant for drug elimination and plasma clearance” value [16, 19] was 2.44 mL/min. For the same compound, the “apparent volume of distribution” value [16, 20] was 3.78 L/kg, the “half-life of the elimination phase” value [16, 20] was 52.4 min and the “rate constant for drug elimination and plasma clearance” value [16, 20] was 0.84 mL/min. The “induction of HIV expression mediated” value [1] was “suppressed in a dose-dependent fashion”, the “systolic and diastolic blood pressure” value ([17]; 1,844 mg i.v. bolus, hypertensive patients and non-hypertensive diabetics, within ten minutes) was “rapid and significant decrease” and the blood pressure values ([17]; 3,699 mg dose, normal subjects) was “significant decrease”.
For `N/C(=N\O)c1cc(O)c(O)c(O)c1` [TD, Trimidox], the “HIV-1 LTR-mediated gene expression” value [2] is given as “significantly suppressed”.
